Measurements: patent US8618167B2, “Methods of attenuating cognitive deficits with sulfonyl fluorides” (priority 2001, dated 2013)

Legend:
[1] = test system: ischemia-induced loss of hippocampal pyramidal cells and acetylcholine; details: pretreatment; cited from earlier work
[2] = test system: ischemic (MCAo) Sprague-Dawley rats; assay: Elevated body swing test (EBST), motor asymmetry after MCAo; type: in vivo, rat; details: 4 wks after MCAo, MSF 1 mg/kg at 24 and 48 hrs then 0.3 mg/kg every other day i.p., mean±S.E.M., vehicle 84.8±10, p>0.05
brain AChE = biological target: T1, brain AChE (Rattus norvegicus, UniProt P37136); details: cited from earlier work
T1 sequence (P37136 32-614): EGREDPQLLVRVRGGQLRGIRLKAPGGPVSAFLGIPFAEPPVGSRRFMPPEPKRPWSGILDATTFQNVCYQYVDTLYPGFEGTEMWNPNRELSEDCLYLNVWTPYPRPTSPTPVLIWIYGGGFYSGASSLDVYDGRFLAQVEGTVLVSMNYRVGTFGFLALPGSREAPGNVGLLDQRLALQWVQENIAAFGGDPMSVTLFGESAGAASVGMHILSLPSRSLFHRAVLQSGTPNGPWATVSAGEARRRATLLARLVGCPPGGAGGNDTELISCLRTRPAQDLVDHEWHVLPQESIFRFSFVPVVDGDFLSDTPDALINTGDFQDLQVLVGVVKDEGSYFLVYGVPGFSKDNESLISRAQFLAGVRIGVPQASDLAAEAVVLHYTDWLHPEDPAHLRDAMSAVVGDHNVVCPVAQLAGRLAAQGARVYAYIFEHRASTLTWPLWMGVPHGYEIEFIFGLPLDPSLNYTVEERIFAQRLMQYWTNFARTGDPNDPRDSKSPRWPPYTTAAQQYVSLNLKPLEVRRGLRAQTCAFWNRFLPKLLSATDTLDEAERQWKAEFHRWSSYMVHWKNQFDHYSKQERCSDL

[3] = biological target: acetylcholinesterase in comparison to butyrylcholinesterase (Homo sapiens, UniProt P22303); details: cited from earlier work
Chain of acetylcholinesterase in comparison to butyrylcholinesterase (P22303 32-614): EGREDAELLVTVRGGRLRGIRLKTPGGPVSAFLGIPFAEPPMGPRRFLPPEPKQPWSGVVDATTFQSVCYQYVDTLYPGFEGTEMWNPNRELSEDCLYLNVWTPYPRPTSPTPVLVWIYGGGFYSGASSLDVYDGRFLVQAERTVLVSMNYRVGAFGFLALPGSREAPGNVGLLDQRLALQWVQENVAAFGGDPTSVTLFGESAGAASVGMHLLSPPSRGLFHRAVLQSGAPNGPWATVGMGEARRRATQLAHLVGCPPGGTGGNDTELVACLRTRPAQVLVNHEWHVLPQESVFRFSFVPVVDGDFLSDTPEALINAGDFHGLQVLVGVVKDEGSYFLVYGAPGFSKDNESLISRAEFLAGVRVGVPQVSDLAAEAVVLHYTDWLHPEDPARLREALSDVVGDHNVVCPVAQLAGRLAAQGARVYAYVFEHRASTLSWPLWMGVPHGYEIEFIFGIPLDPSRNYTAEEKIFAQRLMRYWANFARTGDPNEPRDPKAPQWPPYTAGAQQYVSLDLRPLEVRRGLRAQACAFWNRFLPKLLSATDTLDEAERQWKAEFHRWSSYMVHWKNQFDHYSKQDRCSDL

acetylcholinesterase = biological target: T2, acetylcholinesterase (Rattus norvegicus, UniProt P37136); assay: Control acetylcholinesterase assays of brain after MSF treatment (Ellman spectrophotometric method); type: in vivo; details: same regimen; dissected brain part
T2 construct: from tissue; host or cells: rat brain (whole brain, hippocampus, cortex, striatum/nucleus accumbens)
T2 sequence (P37136 32-614): T1 sequence (P37136 32-614)
Procedure: Control Acetylcholinesterase Assays. Two additional groups of normal control (non-ischemic) rats were treated with MSF (N=4) or peanut oil vehicle (N=4) in accordance with the exact procedures used with the other groups in order to estimate the level of acetylcholinesterase inhibition produced. At the end of the study, the rats were sacrificed and acetylcholinesterase assays were conducted at 25° C. according to the spectrophotometric method (Ellman et al., 1961) with minor modifications (pH set at 7.4 and using 1 mM acetyl-β-methyl-thiocholine iodide as substrate).
Drugs. For study 1, animals received ip injections of either MSF (1 mg/kg at 24 and 48 hrs post-MCAo and 0.3 mg/kg thereafter every other day) or the vehicle, peanut oil, for four weeks. Each animal received 0.5 ml of the solution. For study 2, animals received 1 mg/kg at 24 and 48 hrs post-MCAo and 0, 0.15, 0.30 or 0.6 mg/kg of MSF in peanut oil using the same regimen mentioned above. For study 3, animals were introduced to the same regimen as in study 1, but thereafter received peanut oil every other day from four weeks up to eight weeks post-MCAo.

[4] = test system: ischemic (MCAo) Sprague-Dawley rats; assay: Step-down passive avoidance test after MCAo; type: in vivo, rat
Excerpt: Experimental Protocol. A total of 48 eight-week-old, male, Sprague-Dawley rats weighing about 250 g served as subjects in the present study. All animals were free of virus antibody. A 3-day acclimation period was allowed prior to using the animals. Animals were kept under a 12-12 hr light/dark cycle and allowed free access to food and water before and after surgical procedures. All experimental procedures followed UTEP IACUC guidelines for use of animals in research to minimize discomfort in the animals during surgery and in the recovery period. […] In study one (n=24), the 0.3 mg/kg dose of MSF, which was previously reported as efficacious in ameliorating cognitive deficits in animals, was used to initially provide the putative drug's effects on ischemic animals. Studies two (dose response effects of MSF; n=16) and three (withdrawal of MSF; n=8) were conducted to further characterize the direct neurobehavioral effects of MSF. […]
The passive avoidance test followed the procedures described in detail elsewhere (Borlongan et al., 1998a; 1998b). […] Acquisition of the task was measured in terms of the amount of time it took the rat to remain on the platform continuously for 3 min. Twenty four hrs later, a retention test was conducted by placing the rat on the platform exactly as before and recording the latency to step-down measured to a maximum of 3 min. […]

[5] = test system: brain acetylcholinesterase; details: cited from earlier work
[6] = test system: ischemic (MCAo) Sprague-Dawley rats; details: rat, in vivo
[7] = test system: middle-aged and older rats; details: chronic MSF treatment; cited from earlier work
SDAT patients = details: cited from earlier work
[8] = test system: septal ChAT immunoreactivity; assay: Choline acetyltransferase (ChAT) immunohistochemistry of the septum; type: in vivo, rat
Procedure: Choline Acetyltransferase (ChAT) Immunohistochemistry. Following the behavioral test at 4 wks post-ischemia, randomly selected animals (n=4 per group) were deeply anesthetized and perfused intracardially with 150 ml saline followed by 150 ml of 4% paraformaldehyde. The brains were post-fixed overnight in 4% paraformaldehyde and subsequently immersed in 20% sucrose in 4% paraformaldehyde and stored at 8° C. until sectioning. A vibratome (Vibroslice, Fla.) was used to cut the brain (40 μm sections). Ten serial brain sections that included the septal region (+1.4 to +0.2 mm from the bregma) were processed for ChAT immunohistochemistry. Sections were pre-incubated in 5% blocking serum (normal goat, Jackson ImmunoResearch Laboratories, PA) in 0.1% Triton-X in 0.1 M NaPBS for 60 min, followed by incubation in the primary ChAT antibody (Boehringer Mannheim Biochemical, IN; 1:10 dilution in 0.1 M phosphate-buffered saline, NaPBS) at room temperature overnight. The sections were reacted with the appropriate biotinylated secondary antibody (1:2000) for 45 min, followed by an avidin-biotin-peroxidase complex system (ABC Elite Vectastain Kit, Vector, Burlingame, Calif.) for 45 min. Finally, the Vector VIP Kit (Vector, Burlingame, Calif.) was used to visualize the reaction product. The sections were mounted on gelatin-coated glass slides, dried overnight, dehydrated in increasing alcohol concentrations, and cover-slipped using Permount (Fisher Scientific, Pittsburgh, Pa.) mounting solution. Serial sections were digitized using a PC-based Image Tools computer program. To determine the ChAT alterations in the septum, comparisons of mean total number (average counts from ten brain sections per animal) of septal ChAT-immunoreactive (ir) neurons from MSF- and vehicle-treated ischemic animals were conducted. Individual counts of ChAT-ir neurons were made using the following criteria: heavily stained nuclei (HN), pale stained nuclei (PN) and presence of elaborate processes (P). […] In addition, a 5-point semi-quantitative scale was used to assess the intensity of ChAT immunoreactivity. […]

[9] = chronic MSF 0.22 mg/kg three times per week
[10] = single systemic injection of 1.5 mg/kg MSF

SMILES: CCN(C)C(=O)Oc1cccc([C@H](C)N(C)C)c1 [ENA-173]
- levels of hippocampal acetylcholine and ischemia-induced loss of hippocampal pyramidal cells [1]: preserve the levels of hippocampal acetylcholine and to protect against ischemia-induced loss of pyramidal cells

SMILES: CS(=O)(=O)F [MSF, Methanesulfonyl fluoride]
- biased swing activity (EBST) [2]: 87.7±8%
- decrement in brain AChE activity (brain AChE; [9]): about 50%
- liver damage (brain AChE; [9]): no liver damage
- locomotor side effects (brain AChE; [9]): without discernable locomotor side effects
- behavioral alterations (brain AChE; [10]): no observable behavioral alterations
- reduction of brain AChE activity (brain AChE; [10]): 70%
- selectivity as inhibitor of acetylcholinesterase in comparison to butyrylcholinesterase [3]: high selectivity
- acetylcholinesterase inhibition in cortex (acetylcholinesterase): 85.9%
- acetylcholinesterase inhibition in hippocampus (acetylcholinesterase): 88.5%
- acetylcholinesterase inhibition in striatum/nucleus accumbens (acetylcholinesterase): 95.0%
- passive avoidance: time to acquire the task ([4]; 4 wks after MCAo, same regimen, mean±S.E.M., vehicle 398±62, p<0.05): 255 ± 36 s
- passive avoidance: retention of the task (step down latency) ([4]; retention test 24 hrs after acquisition, max 3 min, vehicle 79±26, p<0.05): 145 ± 18 s
- toxicity at accumulated brain acetylcholinesterase inhibition ([5]; at up to 80-90% brain inhibition): without toxicity
- inhibition of brain acetylcholinesterase that can be accumulated ([5]; relatively small doses over a long period of time, minimum inhibition of peripheral enzyme): 80-90%
- ischemia-induced apoptotic cell death [6]: did not block ischemia-induced apoptotic cell death
- mean volume of infarcted tissue [6]: 78.1±14.2 mm^3
- acquisition of one-trial per day discriminative reward learning task [7]: enhance the acquisition
- persistence of cognition-enhancing effects after withdrawal (SDAT patients; SDAT patients): persisted up to eight weeks after withdrawal of the drug
- cognitive performance of SDAT patients (SDAT patients; double-blind, placebo-controlled study): significant clinical improvements
- intensity of staining of ChAT-ir neurons in lateral and medial septum ([8]; compared to vehicle-treated ischemic animals): more intense staining of ChAT-ir neurons
- increment in mean total number of HN+P ChAT-ir cells vs vehicle-treated ischemic animals ([8]; septum, 4 wks post-ischemia, heavily stained nuclei with processes, p<0.05): 10%-15%
- increment in mean total number of HN ChAT-ir cells vs vehicle-treated ischemic animals ([8]; septum, 4 wks post-ischemia, heavily stained nuclei, p<0.05): 10%-15%

SMILES: COP(=O)(OC)C(O)C(Cl)(Cl)Cl (stereo not drawn) [metrifonate, reference compound]
- selectivity as inhibitor of acetylcholinesterase in comparison to butyrylcholinesterase [3]: do not show this high degree of selectivity
